Measured values as given in PMC12455390, “Three Is Better than One: A Multimetal Complex that Triggers Immunogenic Cell Death” (Angewandte Chemie (International Ed. in English), 2025).
Read-outs that look alike come from different tables or passages of the source.

What was measured:
[1] = tested on: CT26 colorectal cancer model; conditions: CT26 tumors in BALB/c mice, i.p. on days 8, 10, 12 & 14, day 16, doxorubicin 2 mg/kg, mixture 5.7 + 4 + 12 mg/kg, complex 5 21 mg/kg
Method: The experimental protocol consisted of inoculating mice with 1.5 x 10^6 CT26 cells on day 0. When the tumors became palpable, a series of four intraperitoneal (i.p.) injections were carried out on days 8, 10, 12, & 14. On day 16 mice (n = 5) were euthanized and organs including tumors (Figure S37) were collected and analyzed for their metal content via ICP‐MS (Figure 6a). The doxorubicin dosage was based on a previous report.^[ [32] ^]
Procedures were conducted in accordance with the Guide for the Care and Use of Laboratory Animals (U.S. Public Health Service, National Institute of Health) and the protocol for this experiment was approved by the Institutional Animal Care and Use Committee (IACUC, protocol numbers AUP-2022-00101 & AUP-2024-00337) at The University of Texas at Austin. Briefly, 6-8 weeks female BALB/c mice were acclimatized for 7 days thereafter, murine colon carcinoma cells, CT26 (1.5 x 10^6 cells in 100 μL of sterile PBS) were subcutaneously injected to the right flank. The experiments were initiated once tumors became palpable on Day 8. […] The animals were monitored for the development of pain or distress symptoms with the body weight and tumor size also being closely monitored. […] On day 16, mice were euthanized, and tumor and organs (liver, kidney, spleen, heart and lungs) were collected for ICP-MS metal quantification.

CT26 challenge model = test: In vivo CT26 vaccination/challenge model; design: species or system BALB/c mice; conditions: mice vaccinated with CT26 cells pretreated 24 h at IC50, challenged after 7 days
Method: Induction of an immunogenic response in vivo was determined using the established preclinical CT26 challenge model depicted in Figure 8a.^[ [33] ^] […] After 7 days, the mice were challenged with 5 x 10^5 naive CT26 cells injected into the left flank (challenge flank). Mice were monitored thereafter to assess the level, if any, of tumor development on the challenge (left) side. Monitoring was continued for 28 days. […] These are animals in which ICD induction was not expected. Tumor free survival was seen up to day 14 and up to day 21 in the doxorubicin and 1 + Oxa + 2 groups, respectively.
After 7 days, mice were inoculated s.c. with 5 x 10^5 naive CT26 cancer cells into the contralateral flank. Prior to all injections, the supernatant of one flask per harvest day was tested for mycoplasma contamination (MycoAlert™, Lonza, Rockland, ME), which yielded negative results on all days. Body weights and tumor measurements were checked daily, and tumor development was compared among groups.

white blood cells = test: Total and differential WBC manual count in challenge study; type: in vivo, BALB/c mice; conditions: mice injected with pretreated CT26 cells
Text: To test this proposition, whole blood samples were collected from mice before vaccination (day ‐7), before challenge (day 0), and 7 days after challenge (day 7) as outlined in Figure 8a. The samples were subjected to a manual count of total white blood cell (WBC) using Tuerk staining and differential leukocytes (monocytes, lymphocytes, neutrophils, eosinophils, and basophils) using Wright staining (see Supporting Information). The results are summarized in Figure 8c as total WBC per µL (Figure 8c), differential percentages of monocytes (Figure 8d), and lymphocytes (Figure 8e) corresponding to an innate and adaptive immune response, respectively. The neutrophil, eosinophil, and basophil levels remained unchanged. […]
Blood samples were collected from all mice groups by tail vein and were analyzed for total WBC count and differential count.^9 Blood was draw on Day -7 (before vaccination), Day 0 (before rechallenge) and Day 7. Total WBC was analyzed by adding 2 µL of blood to 38 µL Tuerk solution (Sigma-Aldrich product - 93770) and was counted using a hemocytometer after 45 min under a 10x light microscope. […] 200 WBC cells were counted and classified under 1000x magnification using a Leica DMI6000b microscope.

Q: Which “Inhibition of Tumor Growth” value [1] does the source give for `COc1cccc2c1C(=O)c1c(O)c3c(c(O)c1C2=O)C[C@@](O)(C(=O)CO)C[C@@H]3O[C@H]1C[C@H](N)[C@H](O)[C@H](C)O1` [Doxorubicin, doxorubicin, reference compound] here?
A: Its value is 40.8%.

Q: And the “Inhibition of Tumor Growth” value ([1]; listed as doxorubicin)?
A: The value was ~40%.

Q: And the “tumor free survival up to day” value (CT26 challenge model)?
A: The value was ≤ 14 days.

Q: What about the “total WBC count” value (white blood cells; day 0, trends retained through day 7) of the same molecule?
A: Its value is “significant reduction in total WBC count”.

Q: What about the “differential monocyte and lymphocyte percentages” value (white blood cells; days 0 and 7) of the same molecule?
A: Its value is “transient increase in lymphocyte percentages”.
